# Patent publication US20160228506A1, “Compositions and Formulations for Prevention and Reduction of Tumorigenesis, Cancer Cell Proliferation and Invasion, and Methods of Production and Use Thereof in Cancer Treatment” (PRONUTRIA, INC., priority 2013, published 2016)
# Tests used:
# [1] = Intact half-life during simulated gastric fluid (SGF) digestion; conditions: SGF pH 1.5, pepsin:polypeptide 1:20 w/w, 37° C.; intact protein
# male Zucker fatty rats = experiment: OGTT in Zucker fatty rats: SEQID-00105, alogliptin and combination, blood glucose; type: in vivo, rat; conditions: OGTT glucose 2 g/kg
# Procedure: In another experiment, an OGTT was performed in 24, fasted, male Zucker fatty rats with indwelling jugular vein catheters (JVC) to assess the acute effects of nutritive protein dosing on glycemic control as well as insulin and GLP-1 levels. The capacity of SEQID-00105 to improve glucose control was tested by comparing the blood glucose excursion of SEQID-00105 to alogliptin to SEQID-00105+alogliptin to vehicle in the context of an oral glucose tolerance test. All rodents were approximately 10-11 weeks old, weighed average of approximately 430 g and acclimated for 4-5 days prior to testing. Prior to treatment, all rats were fasted overnight for fourteen hours. […] N=6 rats per treatment group. The error bars shown are the standard errors of the mean. Each group was compared post hoc on GraphPad Prism 6, two-way ANOVA, Dunnett's multiple comparisons test first comparing within each group to the fasting glucose concentration, followed by a comparison of each time point to vehicle. […] The integrated area under curve (AUC) was calculated on Microsoft Excel using the Linear-Log Trapezoidal Method and two-way ANOVA and Dunnett's multiple comparisons tests was conducted on GraphPad Prism 6.03.
# Human transglutaminase = target: T1, Human transglutaminase (Homo sapiens, UniProt Q08188); conditions: read-out: Kd for calcium; cited from earlier work
# T1 sequence (Q08188 1-693): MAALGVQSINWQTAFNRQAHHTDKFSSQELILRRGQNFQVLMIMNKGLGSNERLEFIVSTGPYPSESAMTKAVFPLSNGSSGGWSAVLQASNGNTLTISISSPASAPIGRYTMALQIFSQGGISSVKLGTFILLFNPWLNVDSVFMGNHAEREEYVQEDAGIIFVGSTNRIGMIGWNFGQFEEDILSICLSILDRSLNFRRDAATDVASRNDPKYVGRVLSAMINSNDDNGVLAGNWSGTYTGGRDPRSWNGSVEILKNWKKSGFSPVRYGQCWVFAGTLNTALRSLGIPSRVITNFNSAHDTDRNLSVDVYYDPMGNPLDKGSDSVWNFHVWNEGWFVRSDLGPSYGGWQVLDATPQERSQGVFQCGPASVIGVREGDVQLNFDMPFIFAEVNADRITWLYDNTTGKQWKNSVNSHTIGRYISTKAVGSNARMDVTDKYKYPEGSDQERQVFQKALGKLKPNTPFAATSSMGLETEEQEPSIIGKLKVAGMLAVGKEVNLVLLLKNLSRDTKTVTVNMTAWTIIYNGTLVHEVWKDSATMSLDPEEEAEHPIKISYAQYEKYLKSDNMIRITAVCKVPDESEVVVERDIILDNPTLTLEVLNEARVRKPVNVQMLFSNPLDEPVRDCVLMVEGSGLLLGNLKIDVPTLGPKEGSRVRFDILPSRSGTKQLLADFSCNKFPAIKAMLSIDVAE
# [2] = system: serotonin (5-HT) synthesis; conditions: oral intake of free Tryptophan; cited from earlier work
# burn injury = conditions: 0.35 g/kg supplementation, cited from earlier work
# [3] = Thermostability, temperature of aggregation (ProteoStat Thermal Shift); type: physicochemical; conditions: Table E31D; heated 25° C. to 95° C.
# Procedure: The thermostability of proteins in a buffer cocktail of Citric Acid and Dibasic Sodium Phosphate over a pH range of 2.8 to 7.1 (preparation described above in Table E31B) was determined using the ProteoStat® Thermal Shift Stability Kit (Enzo Life Sciences) according to the manufacturer's standard protocol. Briefly, protein solutions (˜10 mg/ml) containing 1× ProteoStat TS Detection Reagent were heated from 25° C. to 95° C. at a rate of 0.5° C. per 30 sec using a real-time PCR (rtPCR) thermocycler (BioRad) equipped with a plate reader (SynergyMx, Biotek) while monitoring the fluorescence with a Texas Red filter.
# healthy subjects = conditions: oral supplementation, vs control; cited from earlier work
# [4] = system: ribosomal protein S6 (rps6); experiment: AlphaScreen SureFire rps6 phosphorylation in primary rat skeletal muscle cells; type: cell-based; conditions: primary RSkMC, different Leucine concentrations
# Procedure: Primary Rat Skeletal Muscle Cell (RSKMC) culture. RSKMC were isolated using protocol described herein and cryopreserved in liquid nitrogen. The cells were also maintained in RSKMC medium (Cell Applications) in T75 tissue flask in a 37° C., 5% CO2 tissue culture incubator (Model 3110, Thermo Fisher Scientific). The cells were split every three day when they reached ˜90% confluency. RSKMC cells were cultured in RSKMC medium in T75 tissue flask to 100% confluency. The culture medium was aspirated from the culture flask and rinsed once with 10 ml of DPBS, and then 1.5 ml of 0.25% trypsin/EDTA was added to the cells. After the cells were detached from the flask, 10 ml of culture medium were added. The medium was pipetted up and down with a 10 ml pipet to detach the cells from the flask. The cells were then seeded into clear bottom 96-well tissue culture plates at a density of 50,000 cells per well. Following overnight culture in a 37° C., 5% CO2 incubator, the cells were starved over a period of 4 hours with starvation DME/F12 medium without FBS and leucine in a 37° C., 5% CO2 tissue culture incubator, then starved for another hour incubation with Hank's Buffered Salt Solution (HBSS). The cells were stimulated with different concentrations of leucine in starvation medium for 15 and 30 minutes. […]
# [5] = SGF digest of 168 nutritive polypeptide library, intact protein by LC-MS/MS; type: in vitro ADME; conditions: 168 nutritive polypeptide library SGF digest, LC-MS/MS spectral counts
# Procedure: The in vitro intact half-life of multiple polypeptides in a complex mixture was determined using the simulated gastric in vitro digestion described above. Briefly, the 168 nutritive polypeptide library was generated as described herein by cloning, transforming, and expressing a gene library encoding 168 proteins as a single mixture. The recombinantly expressed proteins were purified from host cell proteins by IMAC purification as described herein.
# The 168 Protein Library was treated with SGF as described above and the t=0 and t=10 min samples were analyzed for intact protein by LC-MS/MS. To begin, 10 μg of sample was loaded onto a 10% SDS-PAGE gel (Invitrogen) and run approximately 5 cm into the gel. The gel was excised into ten fractions from 100 kD to the dye front and the gel slices were processed by washing with 25 mM ammonium bicarbonate, followed by acetonitrile. Gel fractions were then reduced with 10 mM dithiothreitol at 60° C., followed by alkylation with 50 mM iodoacetamide at room temperature. […] The samples were then analyzed by nano LC/MS/MS using an EasynLC 1000 HPLC system interfaced to a ThermoFisher Q Exactive. […] A full list of detected proteins and their spectral counts (SpC) was generated and reported as a function of each collected gel fraction. […]
compound,measurement,setting,value
SEQID-00218: nutritive polypeptide (GTIENLEEAKKKLLKDVEVLSQRLEEKALAYDKLEKTKTRLQQELDDLLVDLDHQ; listed as Bos taurus),SGF Half-life (t½),[1],360 s
Cn1c(=O)cc(N2CCC[C@@H](N)C2)n(Cc2ccccc2C#N)c1=O [Alogliptin],blood glucose compared to vehicle,male Zucker fatty rats; at 30 minutes following glucose challenge,significantly lower blood glucose than vehicle
same,blood glucose compared to vehicle,male Zucker fatty rats; at 60 minutes following glucose challenge,significantly lower than vehicle
same,glucose AUC compared to vehicle,"male Zucker fatty rats; between time 0 and 120 minutes, P=0.0051",significantly less than vehicle
same,glucose AUC compared to vehicle,"male Zucker fatty rats; between time 0 and 240 minutes, P=0.0054",significantly less than vehicle
"[Ca+2] [calcium, calcium (Ca2+)]",Kd,Human transglutaminase,300 to 3000 nM
N[C@@H](Cc1c[nH]c2ccccc12)C(=O)O [Tryptophan],increase of 5-HT production,[2],2 fold
NC(=O)CC[C@H](N)C(=O)O [Glutamine],reduction in hospital stay,burn injury; 12-day burn injury study,6 days
same,decrease in Lactulose/mannitol ratio,"burn injury; after 3 days, vs 5.5× decrease",8.8 ×
SEQID-00212: nutritive polypeptide (LEEAKKKLLKDVEVLSQRLEEKALAYDKLEKTKTRLQQELDDLLVDLDHQ; listed as Bos taurus),SGF Half-life (t½),[1],18 s
SEQID-00237: nutritive polypeptide (EEDKVNTLTKAKTKLEQQVDDLEGSLEQEKKLRMDLERAKRKLEGDLKLA; listed as Bos taurus),Tagg (pH 7.1),[3],45
same,SGF Half-life (t½),[1],36 s
"N=C(N)NCCC[C@H](N)C(=O)O [arginine, Arginine]",increase in collagen deposition at wound sites,healthy subjects,2.4 ×
SEQID-00215: nutritive polypeptide (KKLLKDVEVLSQRLEEKALAYDKLEKTKTRLQQELDDLLVDLDHQRQIVSNLEKK; listed as Bos taurus),SGF Half-life (t½),[1],120 s
SEQID-00143: nutritive polypeptide (LYLEEVSKNLVEINPLKLEVKAKPWFVYTPMHGVGFDIFSTIVKKTLCLVEGK; listed as Saccharomyces cerevisiae),SGF Half-life (t½),[1],18 s
CC(C)C[C@H](N)C(=O)O [leucine],phosphorylation of rps6,[4],stimulates phorphorylation of rps6 in primary RSkMC in a dose-dependent manner
SEQID-00615: protein of the 168 nutritive polypeptide library (MAGIIHKIEETLHMGGGRKEEEEKRKGEGQGHGGYKGEGQGHGGYKGEGQG; listed as Vitis vinifera),% Intact Protein at 10 min,[5],85.7%
